Measured values: the supplement of paper PMC10307832

Experiments:
Experiment in all cases: relative viability (nuclei count vs DMSO), 5 days (fraction); higher = more cells survive
[1] = test system: SK-MES-1
Summary of the method: (§1)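 Each reported value is a median over duplicate plates. It expresses relative viability: treated-well nuclei count divided by vehicle-well nuclei count. Lung cancer cell lines in 1536-well plates were dosed by pin tool a day after seeding, alone with one drug or with a fixed anchor-drug dose plus five library-drug doses (not always all listed) in √10 steps, and nuclei were counted after 5 days.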

[2] = test system: NCI-H596
Summary of the method: as §1

[3] = test system: EKVX
Summary of the method: as §1

[4] = test system: NCI-H1734
Summary of the method: as §1

[5] = test system: EMC-BAC-2
Summary of the method: as §1

[6] = test system: NCI-H441
Summary of the method: as §1

[7] = test system: NCI-H23
Summary of the method: as §1

[8] = test system: COR-L 105
Summary of the method: as §1

[9] = test system: NCI-H1975
Summary of the method: as §1

[10] = test system: NCI-H1666
Summary of the method: as §1

[11] = test system: NCI-H520
Summary of the method: as §1

What does the source list for `Clc1ccc(Nc2nnc(Cc3ccncc3)c3ccccc23)cc1` [Vatalanib] + O=C(CCCCCCC(=O)Nc1ccccc1)NO [Vorinostat] (partner 1 µM)?
relative viability ([1]; first compound 0.04 µM): 1.13; relative viability ([1]; first compound 0.1265 µM): 1.11; relative viability ([1]; first compound 0.4 µM): 1.12; relative viability ([1]; first compound 1.265 µM): 0.98; relative viability ([1]; first compound 4 µM): 0.985; relative viability ([2]; first compound 0.04 µM): 0.603; relative viability ([2]; first compound 0.1265 µM): 0.542; relative viability ([2]; first compound 0.4 µM): 0.672; relative viability ([2]; first compound 1.265 µM): 0.583; relative viability ([2]; first compound 4 µM): 0.608; relative viability ([3]; first compound 0.04 µM): 0.773; relative viability ([3]; first compound 0.1265 µM): 0.767; relative viability ([3]; first compound 0.4 µM): 0.831; relative viability ([3]; first compound 1.265 µM): 0.655; relative viability ([3]; first compound 4 µM): 0.665; relative viability ([4]; first compound 0.04 µM): 0.804; relative viability ([4]; first compound 0.1265 µM): 0.812; relative viability ([4]; first compound 0.4 µM): 0.937; relative viability ([4]; first compound 1.265 µM): 0.761; relative viability ([4]; first compound 4 µM): 0.775; relative viability ([5]; first compound 0.04 µM): 0.448; relative viability ([5]; first compound 0.1265 µM): 0.414; relative viability ([5]; first compound 0.4 µM): 0.392; relative viability ([5]; first compound 4 µM): 0.457; relative viability ([6]; first compound 0.04 µM): 0.907; relative viability ([6]; first compound 0.1265 µM): 0.589; relative viability ([6]; first compound 0.4 µM): 0.704; relative viability ([6]; first compound 1.265 µM): 0.776; relative viability ([6]; first compound 4 µM): 0.81; relative viability ([7]; first compound 0.04 µM): 0.57; relative viability ([7]; first compound 0.1265 µM): 0.558; relative viability ([7]; first compound 0.4 µM): 0.77; relative viability ([7]; first compound 1.265 µM): 0.495; relative viability ([7]; first compound 4 µM): 0.546; relative viability ([8]; first compound 0.04 µM): 0.846; relative viability ([8]; first compound 0.1265 µM): 0.806; relative viability ([8]; first compound 0.4 µM): 0.829; relative viability ([8]; first compound 1.265 µM): 0.905; relative viability ([8]; first compound 4 µM): 0.794; relative viability ([9]; first compound 0.04 µM): 0.674; relative viability ([9]; first compound 0.1265 µM): 0.691; relative viability ([9]; first compound 0.4 µM): 0.726; relative viability ([9]; first compound 1.265 µM): 0.66; relative viability ([9]; first compound 4 µM): 0.71; relative viability ([10]; first compound 0.04 µM): 0.997; relative viability ([10]; first compound 0.1265 µM): 1.02; relative viability ([10]; first compound 0.4 µM): 1.03; relative viability ([10]; first compound 1.265 µM): 1.04; relative viability ([10]; first compound 4 µM): 0.908; relative viability ([11]; first compound 0.04 µM): 0.621; relative viability ([11]; first compound 0.1265 µM): 0.642; relative viability ([11]; first compound 0.4 µM): 0.817; relative viability ([11]; first compound 1.265 µM): 0.661; relative viability ([11]; first compound 4 µM): 0.718
